Key:
[1] = target: Atypical chemokine receptor 3 (Homo sapiens, UniProt P25106); assay: Displacement of [125I]SDF-1alpha from ACKR3 (unknown origin) expressed in CHO cells after 1 hr by scintillation counting method; type: cell-based
[2] = target: C-X-C chemokine receptor type 4 (Homo sapiens, UniProt P61073); assay: Displacement of [125I]SDF-1alpha from CXCR4 (unknown origin) expressed in HEK293 cells after 1 hr by scintillation counting method; type: cell-based
Sequence of C-X-C chemokine receptor type 4 (P61073 whole entry): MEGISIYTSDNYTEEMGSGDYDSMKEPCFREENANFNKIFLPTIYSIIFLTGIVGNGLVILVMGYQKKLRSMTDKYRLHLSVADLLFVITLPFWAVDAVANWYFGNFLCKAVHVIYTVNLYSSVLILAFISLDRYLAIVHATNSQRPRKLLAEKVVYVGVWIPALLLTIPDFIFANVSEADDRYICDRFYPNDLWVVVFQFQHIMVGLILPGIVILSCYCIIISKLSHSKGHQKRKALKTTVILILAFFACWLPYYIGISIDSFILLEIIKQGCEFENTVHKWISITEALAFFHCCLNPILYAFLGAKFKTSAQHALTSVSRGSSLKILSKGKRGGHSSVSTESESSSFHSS

Sequence of Atypical chemokine receptor 3 (P25106 whole entry): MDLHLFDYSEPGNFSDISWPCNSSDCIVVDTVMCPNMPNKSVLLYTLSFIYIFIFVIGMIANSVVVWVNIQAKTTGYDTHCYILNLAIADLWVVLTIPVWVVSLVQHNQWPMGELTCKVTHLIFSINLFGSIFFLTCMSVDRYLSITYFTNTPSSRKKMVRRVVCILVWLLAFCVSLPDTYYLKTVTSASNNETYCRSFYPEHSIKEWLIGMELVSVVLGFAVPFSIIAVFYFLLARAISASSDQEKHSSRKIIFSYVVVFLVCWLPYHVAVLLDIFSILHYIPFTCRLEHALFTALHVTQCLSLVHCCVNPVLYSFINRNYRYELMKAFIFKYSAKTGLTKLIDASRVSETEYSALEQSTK

IC50 [1]	IC50 [2]	Structure (SMILES)
2 to 24 µM	> 30 µM	CN1C(=O)[C@H](Cc2ccccc2)NC(=O)[C@@H](Cc2ccc(O)cc2)NC(=O)[C@@H]2CCCN2C(=O)[C@H](Cc2ccc3ccccc3c2)NC(=O)[C@@H]1CCCNC(=N)N
2 to 24 µM	> 30 µM	C[C@@H](O)[C@@H]1NC(=O)[C@@H](Cc2ccc(O)cc2)NC(=O)[C@@H]2CCCN2C(=O)[C@H](Cc2ccc3ccccc3c2)NC(=O)[C@H](CCCNC(=N)N)N(C)C1=O
0.69 µM	> 30 µM	CN1C(=O)[C@H](CCCNC(=N)N)NC(=O)[C@@H](Cc2ccc3ccccc3c2)NC(=O)[C@@H]2CCCN2C(=O)[C@H](Cc2ccc3ccccc3c2)NC(=O)[C@@H]1CCCNC(N)=O
2.6 µM	> 30 µM	CN1C(=O)[C@H](CCCN)NC(=O)[C@@H](Cc2ccc(O)cc2)NC(=O)[C@@H]2CCCN2C(=O)[C@H](Cc2ccc3ccccc3c2)NC(=O)[C@@H]1CCCNC(=N)N
0.35 µM	> 30 µM	CN1C(=O)[C@H](CCCNC(=N)N)NC(=O)[C@@H](Cc2ccc(O)cc2)NC(=O)[C@@H]2C[C@@H]3CCCC[C@@H]3N2C(=O)[C@H](Cc2ccc3ccccc3c2)NC(=O)[C@@H]1CCCNC(N)=O
0.84 µM	> 30 µM	CN1C(=O)[C@H](CCCCNC(=N)N)NC(=O)[C@@H](Cc2ccc(O)cc2)NC(=O)[C@@H]2CCCN2C(=O)[C@H](Cc2ccc3ccccc3c2)NC(=O)[C@@H]1CCCNC(=N)N
2 to 24 µM	> 30 µM	CN1C(=O)[C@H](CO)NC(=O)[C@@H](Cc2ccc(O)cc2)NC(=O)[C@@H]2CCCN2C(=O)[C@H](Cc2ccc3ccccc3c2)NC(=O)[C@@H]1CCCNC(=N)N
2 to 24 µM	> 30 µM	CC[C@H](C)[C@@H]1NC(=O)[C@@H](Cc2ccc(O)cc2)NC(=O)[C@@H]2CCCN2C(=O)[C@H](Cc2ccc3ccccc3c2)NC(=O)[C@H](CCCNC(=N)N)N(C)C1=O
3.6 µM	> 30 µM	CN1C(=O)[C@H](CCCNC(N)=O)NC(=O)[C@@H](Cc2ccc(O)cc2)NC(=O)[C@@H]2CCCN2C(=O)[C@H](Cc2ccc3ccccc3c2)NC(=O)[C@@H]1CCCNC(=N)N
1 µM	> 30 µM	CN1C(=O)[C@H](CCCNC(=N)N)NC(=O)[C@@H](Cc2ccc(O)cc2)NC(=O)[C@H](Cc2csc3ccccc23)N(C)C(=O)[C@H](Cc2ccc3ccccc3c2)NC(=O)[C@@H]1CCCNC(N)=O
4.9 µM	> 30 µM	CC(C)[C@H]1C(=O)N[C@H](Cc2ccc(O)cc2)C(=O)N[C@@H](CCCNC(=N)N)C(=O)N(C)[C@@H](CCCNC(N)=O)C(=O)N[C@@H](Cc2ccc3ccccc3c2)C(=O)N1C
2 to 24 µM	> 30 µM	CSCC[C@@H]1NC(=O)[C@@H](Cc2ccc(O)cc2)NC(=O)[C@@H]2CCCN2C(=O)[C@H](Cc2ccc3ccccc3c2)NC(=O)[C@H](CCCNC(=N)N)N(C)C1=O
4 µM	> 30 µM	CN1C(=O)[C@H](CCCNC(=N)N)NC(=O)[C@@H](Cc2ccc(O)cc2)NC(=O)[C@H](Cc2ccc(-c3ccccc3)cc2)N(C)C(=O)[C@H](Cc2ccc3ccccc3c2)NC(=O)[C@@H]1CCCNC(N)=O
0.41 µM	> 30 µM	CN1C(=O)[C@H](CCCNC(=N)N)NC(=O)[C@@H](Cc2ccccc2F)NC(=O)[C@@H]2CCCN2C(=O)[C@H](Cc2ccc3ccccc3c2)NC(=O)[C@@H]1CCCNC(N)=O
0.19 µM	> 30 µM	CN1C(=O)[C@H](CCCNC(=N)N)NC(=O)[C@@H](Cc2ccc(O)cc2)NC(=O)[C@@H]2Cc3ccccc3N2C(=O)[C@H](Cc2ccc3ccccc3c2)NC(=O)[C@@H]1CCCNC(N)=O
4.1 µM	> 30 µM	CN1C(=O)[C@H](CCCNC(=N)N)NC(=O)[C@@H](Cc2ccc(O)cc2)NC(=O)[C@@H]2CCCN2C(=O)[C@H](Cc2ccc3ccccc3c2)NC(=O)[C@@H]1CC(N)=O
1.5 µM	> 30 µM	CN1C(=O)[C@H](CCCNC(=N)N)NC(=O)[C@@H](Cc2ccc(O)cc2)NC(=O)[C@@H]2CCCN2C(=O)[C@H](Cc2ccc3ccccc3c2)NC(=O)[C@@H]1CCNC(=N)N

Reference: ChEMBL document CHEMBL4043305, “Structure-Activity Relationship Study of Cyclic Pentapeptide Ligands for Atypical Chemokine Receptor 3 (ACKR3)” (J Med Chem, 2018)
